In patent US20140018347A1, “BENZOXAZEPINES AS INHIBITORS OF mTOR AND METHODS OF THEIR USE AND MANUFACTURE” (Exelixis, Inc., priority 2010, published 2014) one finds IC50 data, which are given here for 11 compounds.

The structures appear in SMILES notation.

In experiment [1] the target is mTORC1 (Homo sapiens, UniProt P42345). As to the kind of experiment: mTOR/GbL/Raptor (mTORC1) ELISA Assay. In kind it is biochemical. Conditions: phosphorylation of 4E-BP1; 0.2 nM mTORC1, 10 μM ATP. As to the method: The measurement of mTORC1 enzyme activity was performed in an ELISA assay format following the phosphorylation of 4E-BP1 protein. All experiments were performed in the 384-well format. Generally, 0.5 μL DMSO containing varying concentrations of the test compound was mixed with 15 μL enzyme solution. Kinase reactions were initiated with the addition of 15 μL of substrates-containing solution. The assay conditions were as follows; 0.2 nM mTORC1, 10 μM ATP and 50 nM NHis-tagged 4E-BP1 in 20 mM Hepes, pH 7.2, 1 mM DTT, 50 mM NaCl, 10 mM MnCl2, 0.02 mg/mL BSA, 0.01% CHAPS, 50 mM β-glycerophosphate. Following an incubation of 120 minutes at ambient temperature, 20 μL of the reaction volume was transferred to a Ni-Chelate-coated 384-well plate. The binding step of the 4E-BP1 protein proceeded for 60 minutes, followed by washing 4 times each with 50 μL of Tris-buffered saline solution (TBS). Anti-phospho-4E-BP1 rabbit-IgG (20 μL, 1:5000) in 5% BSA-TBST (0.2% Tween-20 in TBS) was added and further incubated for 60 minutes. Incubation with a secondary HRP-tagged anti-IgG was similarly performed after washing off the primary antibody (4 washes of 50 μL). Following the final wash step with TBST, 20 μL of SuperSignal ELISA Femto (Pierce Biotechnology) was added and the luminescence measured using an EnVision plate reader.
For orientation: In an ELISA, binding on a coated surface is turned into a signal by an enzyme label.

For experiment [2], the target named is PI3Kalpha (Homo sapiens, UniProt P42336). In words: PI3K Biochemical Assays (PI3K-alpha assay). Conditions: ATP consumption, luciferase-luciferin; 1 μM ATP, 10 μM PIP2. As to the method:
PI3Kn activity was measured as the percent of ATP consumed following the kinase reaction using luciferase-luciferin-coupled chemiluminescence. Reactions were conducted in 384-well white, medium binding microtiter plates (Greiner). Kinase reactions were initiated by combining test compounds, ATP, substrate (PIP2), and kinase in a 20 μL volume in a buffer solution. The standard PI3Kalpha assay buffer was composed 50 mM Tris, pH 7.5, 1 mM EGTA, 10 mM MgCl2, 1 mM DTT and 0.03% CHAPS. The standard assay concentrations for enzyme, ATP, and substrate were 3 nM, 1 μM, and 10 μM, respectively. The reaction mixture was incubated at ambient temperature for approximately 2 h. Following the kinase reaction, a 10 μL aliquot of luciferase-luciferin mix (Promega Kinase-Glo) was added and the chemiluminescence signal measured using a Victor2 or EnVision (Perkin Elmer). Total ATP consumption was limited to 40-60% and IC50 values of control compounds correlate well with literature references. Substituting PI3Kα with PI3Krβ, PI3Kγ, or PI3Kδ, the inhibitory activity of the compounds for the other isoforms of PI3K were measured. For the PI3Kβ and PI3Kδ assays, enzyme concentrations were 10 nM and 4 nM, respectively. For the PI3Kγ assay, enzyme concentration was 40 nM, the incubation time was 1 h, and the concentration of MgCl2 in the assay buffer was 5 mM.

In general, IC50 refers to the concentration needed to halve the response being measured. A low value points to greater potency.

PI3Kalpha, sequence (P42336 whole entry): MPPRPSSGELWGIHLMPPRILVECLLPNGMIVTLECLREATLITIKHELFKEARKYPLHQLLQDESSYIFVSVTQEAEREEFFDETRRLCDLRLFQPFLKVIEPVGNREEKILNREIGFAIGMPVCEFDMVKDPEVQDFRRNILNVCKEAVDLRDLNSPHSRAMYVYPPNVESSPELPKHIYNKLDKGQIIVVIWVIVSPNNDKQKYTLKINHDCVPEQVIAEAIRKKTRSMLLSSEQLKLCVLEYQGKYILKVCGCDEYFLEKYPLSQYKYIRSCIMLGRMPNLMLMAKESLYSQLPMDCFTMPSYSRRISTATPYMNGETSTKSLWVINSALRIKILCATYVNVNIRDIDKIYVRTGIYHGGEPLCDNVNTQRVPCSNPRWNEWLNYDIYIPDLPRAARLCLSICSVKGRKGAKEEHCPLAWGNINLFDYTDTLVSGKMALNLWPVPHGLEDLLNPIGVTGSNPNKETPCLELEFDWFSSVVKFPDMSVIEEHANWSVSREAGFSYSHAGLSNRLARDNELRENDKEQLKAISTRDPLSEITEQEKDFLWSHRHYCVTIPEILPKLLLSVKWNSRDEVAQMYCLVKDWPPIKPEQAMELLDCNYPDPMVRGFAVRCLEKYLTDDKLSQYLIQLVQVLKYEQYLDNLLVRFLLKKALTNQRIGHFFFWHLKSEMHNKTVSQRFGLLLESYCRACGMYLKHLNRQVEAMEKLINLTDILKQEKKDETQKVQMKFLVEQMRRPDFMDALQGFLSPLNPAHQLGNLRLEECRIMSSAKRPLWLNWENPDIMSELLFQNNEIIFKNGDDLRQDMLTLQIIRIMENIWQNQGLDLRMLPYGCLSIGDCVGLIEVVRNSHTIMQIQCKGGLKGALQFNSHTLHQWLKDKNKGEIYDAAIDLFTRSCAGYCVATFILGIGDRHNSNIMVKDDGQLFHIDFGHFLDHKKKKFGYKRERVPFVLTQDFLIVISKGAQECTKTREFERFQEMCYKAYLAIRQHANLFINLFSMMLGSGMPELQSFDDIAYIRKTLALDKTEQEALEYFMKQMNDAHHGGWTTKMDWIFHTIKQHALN
PI3Kalpha, sequence (P27986 whole entry partner): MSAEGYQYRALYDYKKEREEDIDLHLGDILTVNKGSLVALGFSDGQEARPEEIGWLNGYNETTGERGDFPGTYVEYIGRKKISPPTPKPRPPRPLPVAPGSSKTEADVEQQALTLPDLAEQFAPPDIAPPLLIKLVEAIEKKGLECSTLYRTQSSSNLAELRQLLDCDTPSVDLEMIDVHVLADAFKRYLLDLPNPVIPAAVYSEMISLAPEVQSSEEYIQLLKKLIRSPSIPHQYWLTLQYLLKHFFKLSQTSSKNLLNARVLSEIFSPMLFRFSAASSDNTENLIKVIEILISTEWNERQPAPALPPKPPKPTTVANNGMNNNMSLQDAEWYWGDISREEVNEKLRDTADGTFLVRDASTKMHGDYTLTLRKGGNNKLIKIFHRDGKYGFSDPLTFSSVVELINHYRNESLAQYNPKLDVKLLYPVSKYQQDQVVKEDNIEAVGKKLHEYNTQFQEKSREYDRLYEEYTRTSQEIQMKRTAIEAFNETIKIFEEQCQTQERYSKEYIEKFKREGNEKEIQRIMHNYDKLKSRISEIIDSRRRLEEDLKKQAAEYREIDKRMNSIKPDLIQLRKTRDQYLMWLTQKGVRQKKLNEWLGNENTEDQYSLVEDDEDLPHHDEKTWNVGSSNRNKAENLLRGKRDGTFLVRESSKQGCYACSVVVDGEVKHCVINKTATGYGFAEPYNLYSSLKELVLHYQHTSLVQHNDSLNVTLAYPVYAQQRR

On to `Cc1nc(CN(C)C)nc(N2CCOc3ccc(-c4cnc5sc(N)nc5c4)cc3C2)c1CC(C)C` [Compound 36, 6-(4-{2-[(dimethylamino)methyl]-6-methyl-5-(2-methylpropyl)pyrimidin-4-yl}-2,3,4,5-tetrahydro-1,4-benzoxazepin-7-yl)[1,3]thiazolo[5,4-b]pyridin-2-amine], for which the IC50 is no more than 100 nM in experiment [1] and 100 to 500 nM in experiment [2].
On to `CC#Cc1c(C)nc(N)nc1N1CCOc2ccc(-c3cnc4sc(N)nc4c3)cc2C1` [Compound 77, 6-[4-(2-amino-6-methyl-5-prop-1-yn-1-ylpyrimidin-4-yl)-2,3,4,5-tetrahydro-1,4-benzoxazepin-7-yl][1,3]thiazolo[5,4-b]pyridin-2-amine], for which the 50% inhibitory concentration (IC50) in experiment [1] and in experiment [2] was no more than 100 nM in each case.
For `CC1CC(C)(C)Cc2c1nc(N)nc2N1CCOc2ccc(-c3cnc4sc(N)nc4c3)cc2C1` (stereo not shown) [Compound 57, 4-[7-(2-amino[1,3]thiazolo[5,4-b]pyridin-6-yl)-2,3-dihydro-1,4-benzoxazepin-4(5H)-yl]-6,6,8-trimethyl-5,6,7,8-tetrahydroquinazolin-2-amine], the half-inhibitory concentration (IC50) in experiment [1] and in experiment [2] was no more than 100 nM in each case.
`CC1=CC(C)(C)Cc2c1nc(N)nc2N1CCOc2ccc(-c3cnc4sc(N)nc4c3)cc2C1` [Compound 97, 4-[7-(2-amino[1,3]thiazolo[5,4-b]pyridin-6-yl)-2,3-dihydro-1,4-benzoxazepin-4(5H)-yl]-6,6,8-trimethyl-5,6-dihydroquinazolin-2-amine]: the half-inhibitory concentration (IC50) in experiment [1] and in experiment [2] was no more than 100 nM in each case.
`Cc1nc(N)nc(N2CCOc3ccc(-c4cnc5sc(N)nc5c4)cc3C2)c1CCC#N` [Compound 44, 3-{2-amino-4-[7-(2-amino[1,3]thiazolo[5,4-b]pyridin-6-yl)-2,3-dihydro-1,4-benzoxazepin-4(5H)-yl]-6-methylpyrimidin-5-yl}propanenitrile]: the IC50 in experiment [1] was 100 to 500 nM; in experiment [2], no more than 100 nM.
For `CC[C@H]1CCc2c(nc(N)nc2N2CCOc3ccc(-c4cnc5sc(N)nc5c4)cc3C2)C1` [Compound 56, (7S)-4-[7-(2-amino[1,3]thiazolo[5,4-b]pyridin-6-yl)-2,3-dihydro-1,4-benzoxazepin-4(5H)-yl]-7-ethyl-5,6,7,8-tetrahydroquinazolin-2-amine], the IC50 in experiment [1] and in experiment [2] was no more than 100 nM in each case.
On to `C=CCc1c(C)nc(N)nc1N1CCOc2ccc(-c3cnc4sc(N)nc4c3)cc2C1` [Compound 83, 6-[4-(2-amino-6-methyl-5-prop-2-en-1-ylpyrimidin-4-yl)-2,3,4,5-tetrahydro-1,4-benzoxazepin-7-yl][1,3]thiazoloJ-[5,4-b]pyridin-2-amine], for which the IC50 in experiment [1] and in experiment [2] was no more than 100 nM each time.
Regarding `Cc1nc(N)nc(N2CCOc3ccc(-c4cnc5sc(N)nc5c4)cc3C2)c1C(C)C` [Compound 100], the concentration for half-maximal inhibition (IC50) in experiment [1] and in experiment [2] was no more than 100 nM throughout.
Take `Cc1nc(CNS(C)(=O)=O)nc(N2CCOc3ccc(-c4cnc5sc(N)nc5c4)cc3C2)c1C(C)C` [Compound 21, N-({4-[7-(2-amino[1,3]thiazolo[5,4-b]pyridin-6-yl)-2,3-dihydro-1,4-benzoxazepin-4(5H)-yl]-6-methyl-5-(1-methylethyl)pyrimidin-2-yl}methyl)methanesulfonamide]: the IC50 in experiment [1] and in experiment [2] was no more than 100 nM throughout.
In the case of `Cc1nc(CN(C)C)nc(N2CCOc3ccc(-c4cnc5sc(N)nc5c4)cc3C2)c1CC(O)CO` (stereo not shown) [Compound 45, 3-{4-[7-(2-amino[1,3]thiazolo[5,4-b]pyridin-6-yl)-2,3-dihydro-1,4-benzoxazepin-4(5H)-yl]-2-[(dimethylamino)methyl]-6-methylpyrimidin-5-yl}propane-1,2-diol], the IC50 in experiment [1] and in experiment [2] was 500 to 2500 nM in each case.
As for `Nc1cc(N2CCOc3ccc(-c4cnc5sc(N)nc5c4)cc3C2)nc(N)n1` [Compound 80, 6-[7-(2-amino[1,3]thiazolo[5,4-b]pyridin-6-yl)-2,3-dihydro-1,4-benzoxazepin-4(5H)-yl]pyrimidine-2,4-diamine], the IC50 in experiment [1] was 100 to 500 nM; in experiment [2] it was no more than 100 nM.
